Reference: patent EP3015165A1, “MATERIAL AND METHOD FOR CAPTURING, DETECTING AND Q[…] SULPHUR COMPOUNDS” (priority 2014, dated 2016)
Converted amounts (≈) assume the structure as drawn.

Key:
[1] = [gas]/[liq], grandeur sans dimension; cited from earlier work
[2] = cited from earlier work
[3] = couples H2S/HS^- et CH3SH/CH3S^-; cited from earlier work
[4] = Solubility limit in ethanol; type: physicochemical; details: organic solvent or mixture, éthanol, read-out: limite de solubilité dans l'éthanol
Protocol: Le TMOS et l'éthanol sont mélangés dans un premier temps. Puis le volume désiré de DMPD à 0,5 M dans l'eau est introduit, suivi du volume désiré de FeCl3 à 0,5 M dans 0,267 M HCl. La quantité d'eau restante pour atteindre 1,44 mL suit l'ajout d'HCl provoquant un échauffement du sol qui est agité le temps de refroidir. Pour les formulations fortement dopées en DMPD, il est nécessaire de dissoudre la DMPD dans l'éthanol plutôt que dans l'eau. La limite de solubilité de la DMPD dans l'éthanol est de 21 mM.

[5] = Kinetics of the probe-target reaction in aqueous solution at neutral pH; details: pH=7,4, target 50 µM and DTNB 5 µM (Figure 2A)
Protocol: (§1) Or, en milieu acide, les VSC modèles, à savoir le sulfure d'hydrogène et le méthanethiol, sont peu solubles. La présente étude a donc été menée en solution à pH neutre et, par conséquent sur les formes déprotonées Na2S et (CH3)SNa des deux VSC modèles.
Cette étude a montré que la cinétique de la réaction est suffisamment rapide pour envisager de l'employer dans un xérogel comme réaction de transduction : en moins de 5 min, l'équilibre est atteint (Figure 2A). On peut remarquer également que la réaction de détection du (CH3)SNa est moins rapide que celle de Na2S, avec en outre un moins bon rendement.

[6] = Stability of the probe in solution as a function of pH; type: physicochemical; details: milieu basique, from pH 9 the disulphide bridge breaks by itself in a few hours
Description: as §1

[7] = exposition prolongée à forte concentration; cited from earlier work

What does the source list for `CS` [CH3SH, méthanethiol]?
constante de Henry Hcc [1]: 1,23.10^-1; solubilité dans l'eau [2]: 0,48 mol.L^-1; pKa [3]: 12,0

Which solubility [4] does the source give for `CN(C)c1ccc(N)cc1` [DMPD, N,N-diméthylparaphénylènediamine] here?
Its solubility is 21 mM (≈ 2860 µg/mL).

Which “time to reach equilibrium of the reaction” value [5] does the source give for `O=C(O)c1cc(SSc2ccc([N+](=O)[O-])c(C(=O)O)c2)ccc1[N+](=O)[O-]` [DTNB, acide 5,5'-dithiobis(2-nitrobenzoïque)] here?
The value was under 5 min.

What about the stability in solution [6] of the same compound?
The stability in solution was “n'est pas stable”.

With `S` [H2S, sulfure d'hydrogène] as the compound, how does the “constante de Henry Hcc” value [1] read?
Its value is 4,09.10^-1.

And the “concentration causing paralysie du nerf olfactif” value [7]?
The value was 100 à 150 ppm.

What about the pKa [3] of the same compound?
The pKa was 7,0.
